Data taken from patent publication US20250230193A1, “CYCLIC COMPOUND HAVING SELECTIVE KRAS INHIBITORY EFFECT ON HRAS AND NRAS” (CHUGAI SEIYAKU KABUSHIKI KAISHA, priority 2022, published 2025).
Where a SMILES comes first, the peptide text is derived from it. Bridges are numbered along the chain shown (N, C = ends). [ ]: non-standard residue; d: D form. The star is where a group is joined. hPhe(3-Cl-4-CF3) = N[C@@H](CCc1ccc(C(F)(F)F)c(Cl)c1)C(=O)O; NPrPhe(4-CF3) = CCCN[C@@H](Cc1ccc(C(F)(F)F)cc1)C(=O)O; NEtPhe(4-CF3) = CCN[C@@H](Cc1ccc(C(F)(F)F)cc1)C(=O)O; hPhe(3,4-Cl2) = N[C@@H](CCc1ccc(Cl)c(Cl)c1)C(=O)O; Abu(4,4,4-F3) = N[C@@H](CC(F)(F)F)C(=O)O; NMeGly(cPent) = CN[C@H](C(=O)O)C1CCCC1; cisHyp = O=C(O)[C@@H]1C[C@H](O)CN1; Hyp = O=C(O)[C@@H]1C[C@@H](O)CN1; Gly(cBu) = N[C@H](C(=O)O)C1CCC1; NMeD = CN[C@@H](CC(=O)O)C(=O)O; NMeL = CN[C@@H](CC(C)C)C(=O)O; Ac6c = NC1(C(=O)O)CCCCC1; Morpholide = C1CN(*)CCO1; Ac5c = NC1(C(=O)O)CCCC1; Abu = CC[C@H](N)C(=O)O; Ac3c = NC1(C(=O)O)CC1; Aib = CC(C)(N)C(=O)O; Sar = CNCC(=O)O

Columns and labels:
[1] = biological target: GDP-bound NRAS wild-type protein (Homo sapiens, UniProt P01111); test: Binding to NRAS by surface plasmon resonance (SPR), Single Cycle Kinetics; conditions: KD ratio NRAS/KRAS, SPR
Chain of GDP-bound NRAS wild-type protein (P01111 whole entry): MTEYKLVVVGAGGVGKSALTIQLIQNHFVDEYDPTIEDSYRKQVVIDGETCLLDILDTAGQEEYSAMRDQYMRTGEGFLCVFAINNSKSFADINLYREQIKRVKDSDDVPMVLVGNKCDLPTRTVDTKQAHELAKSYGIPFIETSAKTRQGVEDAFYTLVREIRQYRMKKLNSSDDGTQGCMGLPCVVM

[2] = biological target: GDP-bound HRAS wild-type protein (Homo sapiens, UniProt P01112); test: Binding to HRAS by surface plasmon resonance (SPR), Single Cycle Kinetics; conditions: KD ratio HRAS/KRAS, SPR
Chain of GDP-bound HRAS wild-type protein (P01112 whole entry): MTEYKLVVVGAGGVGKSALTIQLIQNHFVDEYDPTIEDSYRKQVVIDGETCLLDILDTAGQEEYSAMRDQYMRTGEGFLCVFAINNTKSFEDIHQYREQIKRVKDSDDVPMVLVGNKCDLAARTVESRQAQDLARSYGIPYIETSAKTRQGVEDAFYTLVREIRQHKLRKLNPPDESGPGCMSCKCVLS

Row | SMILES | NRAS/KRAS (ratio of KD for GDP-bound NRAS wild-type to KD for KRAS) [1] | HRAS/KRAS (ratio of KD for GDP-bound HRAS wild-type to KD for KRAS) [2]
1 | CCCN1C(=O)CN(C)C(=O)CN(C)C(=O)[C@H]([C@@H](C)CC)NC(=O)[C@H](CC(C)C)N(C)C(=O)C[C@@H](C(=O)N2CCOCC2)N(C)C(=O)[C@H](C2CCCC2)N(C)C(=O)C2(CCCC2)NC(=O)[C@@H]2CCCN2C(=O)[C@H](CCc2ccc(Cl)c(Cl)c2)NC(=O)CN(C)C(=O)[C@@H]1Cc1ccc(C(F)(F)F)cc1 [PP0232] ([NMeL]I[Sar][Sar][NPrPhe(4-CF3)][Sar][hPhe(3,4-Cl2)]P[Ac5c][NMeGly(cPent)][NMeD]-Morpholide; lactam N-11) | B (a compound having 3 or more and less than 10 is denoted as B) | B (a compound having 3 or more and less than 10 is denoted as B)
2 | CCCN1C(=O)CN(C)C(=O)CN(C)C(=O)[C@H]([C@@H](C)CC)NC(=O)[C@H](CC(C)C)N(C)C(=O)C[C@@H](C(=O)N2CCOCC2)N(C)C(=O)[C@H](C2CCCC2)N(C)C(=O)C2(CCCC2)NC(=O)[C@@H]2C[C@@H](OCC)CN2C(=O)[C@H](CCc2ccc(C(F)(F)F)c(Cl)c2)NC(=O)CN(C)C(=O)[C@@H]1Cc1ccc(C(F)(F)F)cc1 [PP0233] ([NMeL]I[Sar][Sar][NPrPhe(4-CF3)][Sar][hPhe(3-Cl-4-CF3)][Hyp](Et)[Ac5c][NMeGly(cPent)][NMeD]-Morpholide; lactam N-11) | B (a compound having 3 or more and less than 10 is denoted as B) | C (A compound having a KD ratio of 0.1 or more and less than 3 is denoted as C)
3 | CC[C@H](C)[C@@H]1NC(=O)[C@H](CC(C)C)N(C)C(=O)C[C@@H](C(=O)N2CCOCC2)N(C)C(=O)[C@H](C2CCCC2)N(C)C(=O)C2(CC2)NC(=O)[C@@H]2CCCN2C(=O)[C@H](CCc2ccc(C(F)(F)F)c(Cl)c2)NC(=O)CN(C)C(=O)[C@H](Cc2ccc(C(F)(F)F)cc2)N(CC)C(=O)CN(C)C(=O)CN(C)C1=O [PP0234] ([NMeL]I[Sar][Sar][NEtPhe(4-CF3)][Sar][hPhe(3-Cl-4-CF3)]P[Ac3c][NMeGly(cPent)][NMeD]-Morpholide; lactam N-11) | B (a compound having 3 or more and less than 10 is denoted as B) | C (A compound having a KD ratio of 0.1 or more and less than 3 is denoted as C)
4 | CC[C@H](C)[C@@H]1NC(=O)[C@H](CC(C)C)N(C)C(=O)C[C@@H](C(=O)N2CCOCC2)N(C)C(=O)[C@H](C2CCCC2)N(C)C(=O)C(C)(C)NC(=O)[C@@H]2CCCN2C(=O)[C@H](CCc2ccc(C(F)(F)F)c(Cl)c2)NC(=O)CN(C)C(=O)[C@H](Cc2ccc(C(F)(F)F)cc2)N(CC)C(=O)CN(C)C(=O)CN(C)C1=O [PP0235] ([NMeL]I[Sar][Sar][NEtPhe(4-CF3)][Sar][hPhe(3-Cl-4-CF3)]P[Aib][NMeGly(cPent)][NMeD]-Morpholide; lactam N-11) | B (a compound having 3 or more and less than 10 is denoted as B) | C (A compound having a KD ratio of 0.1 or more and less than 3 is denoted as C)
5 | CC[C@H](C)[C@@H]1NC(=O)[C@H](CC(C)C)N(C)C(=O)C[C@@H](C(=O)N2CCOCC2)N(C)C(=O)[C@H](C2CCCC2)N(C)C(=O)C2(CCCCC2)NC(=O)[C@@H]2CCCN2C(=O)[C@H](CCc2ccc(C(F)(F)F)c(Cl)c2)NC(=O)CN(C)C(=O)[C@H](Cc2ccc(C(F)(F)F)cc2)N(CC)C(=O)CN(C)C(=O)CN(C)C1=O [PP0236] ([NMeL]I[Sar][Sar][NEtPhe(4-CF3)][Sar][hPhe(3-Cl-4-CF3)]P[Ac6c][NMeGly(cPent)][NMeD]-Morpholide; lactam N-11) | B (a compound having 3 or more and less than 10 is denoted as B) | C (A compound having a KD ratio of 0.1 or more and less than 3 is denoted as C)
6 | CC[C@H](C)[C@@H]1NC(=O)[C@H](CC(C)C)N(C)C(=O)C[C@@H](C(=O)N2CCOCC2)N(C)C(=O)[C@H](C2CCCC2)N(C)C(=O)C2(CCCC2)NC(=O)[C@@H]2CCCN2C(=O)[C@H](CCc2ccc(Cl)c(Cl)c2)NC(=O)CN(C)C(=O)[C@H](Cc2ccc(C(F)(F)F)cc2)N(CC)C(=O)CN(C)C(=O)CN(C)C1=O [PP0237] ([NMeL]I[Sar][Sar][NEtPhe(4-CF3)][Sar][hPhe(3,4-Cl2)]P[Ac5c][NMeGly(cPent)][NMeD]-Morpholide; lactam N-11) | B (a compound having 3 or more and less than 10 is denoted as B) | C (A compound having a KD ratio of 0.1 or more and less than 3 is denoted as C)
7 | CCCN1C(=O)[C@@H]2CCN2C(=O)[C@H](C)N(C)C(=O)[C@H]([C@@H](C)CC)NC(=O)[C@H](CC(C)C)N(C)C(=O)C[C@@H](C(=O)N2CCOCC2)N(C)C(=O)[C@H](C2CCCC2)N(C)C(=O)C2(CCCC2)NC(=O)[C@@H]2C[C@@H](O)CN2C(=O)[C@H](CCc2ccc(C(F)(F)F)c(Cl)c2)NC(=O)CN(C)C(=O)[C@@H]1Cc1ccc(C(F)(F)F)cc1 [PP0239] | C (A compound having a KD ratio of 0.1 or more and less than 3 is denoted as C) | B (a compound having 3 or more and less than 10 is denoted as B)
8 | CCCN1C(=O)CN(C)C(=O)CN(C)C(=O)[C@H]([C@@H](C)CC)NC(=O)[C@H](CC(C)C)N(C)C(=O)C[C@@H](C(=O)N2CCOCC2)N(C)C(=O)[C@H](C2CCCC2)N(C)C(=O)C2(CCCC2)NC(=O)[C@@H]2C[C@H](O)CN2C(=O)[C@H](CCc2ccc(C(F)(F)F)c(Cl)c2)NC(=O)CN(C)C(=O)[C@@H]1Cc1ccc(C(F)(F)F)cc1 [PP0240] ([NMeL]I[Sar][Sar][NPrPhe(4-CF3)][Sar][hPhe(3-Cl-4-CF3)][cisHyp][Ac5c][NMeGly(cPent)][NMeD]-Morpholide; lactam N-11) | B (a compound having 3 or more and less than 10 is denoted as B) | C (A compound having a KD ratio of 0.1 or more and less than 3 is denoted as C)
9 | CCCN1C(=O)CN(C)C(=O)CN(C)C(=O)[C@H]([C@@H](C)CC)NC(=O)[C@H](CC(C)C)N(C)C(=O)C[C@@H](C(=O)N2CCOCC2)N(C)C(=O)[C@H](C2CCCC2)N(C)C(=O)C2(CCCC2)NC(=O)[C@@H]2C[C@@H](O)CN2C(=O)[C@H](CCc2ccc(C(F)(F)F)c(Cl)c2)NC(=O)CN(C)C(=O)[C@@H]1Cc1ccc(C(F)(F)F)cc1 [PP0241] ([NMeL]I[Sar][Sar][NPrPhe(4-CF3)][Sar][hPhe(3-Cl-4-CF3)][Hyp][Ac5c][NMeGly(cPent)][NMeD]-Morpholide; lactam N-11) | B (a compound having 3 or more and less than 10 is denoted as B) | C (A compound having a KD ratio of 0.1 or more and less than 3 is denoted as C)
10 | CCCN1C(=O)CN(C)C(=O)CN(C)C(=O)[C@H]([C@@H](C)CC)NC(=O)[C@H](CC(C)C)N(C)C(=O)C[C@@H](C(=O)N2CCOCC2)N(C)C(=O)[C@H](C2CCCC2)N(C)C(=O)C2(CCCC2)NC(=O)[C@@H]2C[C@H](OCC)CN2C(=O)[C@H](CCc2ccc(C(F)(F)F)c(Cl)c2)NC(=O)CN(C)C(=O)[C@@H]1Cc1ccc(C(F)(F)F)cc1 [PP0243] ([NMeL]I[Sar][Sar][NPrPhe(4-CF3)][Sar][hPhe(3-Cl-4-CF3)][cisHyp](Et)[Ac5c][NMeGly(cPent)][NMeD]-Morpholide; lactam N-11) | B (a compound having 3 or more and less than 10 is denoted as B) | C (A compound having a KD ratio of 0.1 or more and less than 3 is denoted as C)
11 | CCCN1C(=O)CN(C)C(=O)CN(C)C(=O)[C@H](CC)NC(=O)[C@H](CC(C)C)N(C)C(=O)C[C@@H](C(=O)N2CCOCC2)N(C)C(=O)[C@H](C2CCCC2)N(C)C(=O)C2(CCCC2)NC(=O)[C@@H]2CCCN2C(=O)[C@H](CCc2ccc(C(F)(F)F)c(Cl)c2)NC(=O)CN(C)C(=O)[C@@H]1Cc1ccc(C(F)(F)F)cc1 [PP0248] ([NMeL][Abu][Sar][Sar][NPrPhe(4-CF3)][Sar][hPhe(3-Cl-4-CF3)]P[Ac5c][NMeGly(cPent)][NMeD]-Morpholide; lactam N-11) | B (a compound having 3 or more and less than 10 is denoted as B) | B (a compound having 3 or more and less than 10 is denoted as B)
12 | CCCN1C(=O)CN(C)C(=O)CN(C)C(=O)[C@H](CC(F)(F)F)NC(=O)[C@H](CC(C)C)N(C)C(=O)C[C@@H](C(=O)N2CCOCC2)N(C)C(=O)[C@H](C2CCCC2)N(C)C(=O)C2(CCCC2)NC(=O)[C@@H]2CCCN2C(=O)[C@H](CCc2ccc(C(F)(F)F)c(Cl)c2)NC(=O)CN(C)C(=O)[C@@H]1Cc1ccc(C(F)(F)F)cc1 [PP0249] ([NMeL][Abu(4,4,4-F3)][Sar][Sar][NPrPhe(4-CF3)][Sar][hPhe(3-Cl-4-CF3)]P[Ac5c][NMeGly(cPent)][NMeD]-Morpholide; lactam N-11) | B (a compound having 3 or more and less than 10 is denoted as B) | C (A compound having a KD ratio of 0.1 or more and less than 3 is denoted as C)
13 | CCCN1C(=O)CN(C)C(=O)CN(C)C(=O)[C@H](C2CCC2)NC(=O)[C@H](CC(C)C)N(C)C(=O)C[C@@H](C(=O)N2CCOCC2)N(C)C(=O)[C@H](C2CCCC2)N(C)C(=O)C2(CCCC2)NC(=O)[C@@H]2CCCN2C(=O)[C@H](CCc2ccc(C(F)(F)F)c(Cl)c2)NC(=O)CN(C)C(=O)[C@@H]1Cc1ccc(C(F)(F)F)cc1 [PP0250] ([NMeL][Gly(cBu)][Sar][Sar][NPrPhe(4-CF3)][Sar][hPhe(3-Cl-4-CF3)]P[Ac5c][NMeGly(cPent)][NMeD]-Morpholide; lactam N-11) | B (a compound having 3 or more and less than 10 is denoted as B) | C (A compound having a KD ratio of 0.1 or more and less than 3 is denoted as C)
